Activity calls are given as the source filed them.
Assays:
Assay type in all cases: functional, organism-based
Conditions in all cases: time 7.0 hrs
Mus musculus [1] = assay: Anti-inflammatory activity against LPS-induced acute […] injury C57BL/6 mouse model assessed as improvement in alveolar wall thickness at 20 mg/kg, ip administered for 1 hr and measured after 6 hrs by H and E staining based analysis
Mus musculus [2] = assay: Anti-inflammatory activity against LPS-induced acute […] injury C57BL/6 mouse model assessed as improvement in alveolar structure at 20 mg/kg, ip administered for 1 hr and measured after 6 hrs by H and E staining based analysis
Mus musculus [3] = assay: Anti-inflammatory activity against LPS-induced acute […] injury C57BL/6 mouse model assessed as reduction in wet weight to dry weight ratio in lung at 20 mg/kg, ip administered for 1 hr and measured after 6 hrs
Mus musculus [4] = assay: Anti-inflammatory activity against LPS-induced acute […] injury C57BL/6 mouse model assessed as improvement in pulmonary hemorrhage at 20 mg/kg, ip administered for 1 hr and measured after 6 hrs by H and E staining based analysis
Mus musculus [5] = assay: Anti-inflammatory activity against LPS-induced acute […] injury C57BL/6 mouse model assessed as reduction in congestion in lung at 20 mg/kg, ip administered for 1 hr and measured after 6 hrs by H and E staining based analysis
Mus musculus [6] = assay: Anti-inflammatory activity against LPS-induced acute […] injury C57BL/6 mouse model assessed as improvement in lung edema at 20 mg/kg, ip administered for 1 hr and measured after 6 hrs by H and E staining based analysis
Mus musculus [7] = assay: Anti-inflammatory activity against LPS-induced acute […] injury C57BL/6 mouse model assessed as reduction in inflammatory cell infiltration at 20 mg/kg, ip administered for 1 hr and measured after 6 hrs by H and E staining based analysis
Mus musculus [8] = assay: Anti-inflammatory activity against LPS-induced acute […] injury C57BL/6 mouse model assessed as improvement in destruction of lung structure at 20 mg/kg, ip administered for 1 hr and measured after 6 hrs by H and E staining based analysis
Mus musculus [9] = assay: Anti-inflammatory activity against LPS-induced acute […] injury C57BL/6 mouse model assessed as reduction in bleeding points in lung at 20 mg/kg, ip administered for 1 hr and measured after 6 hrs by H and E staining based analysis
Mus musculus [10] = assay: Anti-inflammatory activity against LPS-induced acute […] injury C57BL/6 mouse model assessed as reduction in lung edema at 20 mg/kg, ip administered for 1 hr and measured after 6 hrs by H and E staining based analysis
Mus musculus [11] = assay: Anti-inflammatory activity against LPS-induced acute […] injury C57BL/6 mouse model assessed as reduction in alveolar thickness in lung at 20 mg/kg, ip administered for 1 hr and measured after 6 hrs by H and E staining based analysis

Measured: Activity

COc1cc(/C=C/C(=O)OC[C@H](Cc2cc(OC)c(O)c(OC)c2)[C@@H](COC(=O)/C=C/c2ccc(O)c(OC)c2)Cc2cc(OC)c(O)c(OC)c2)ccc1O
active: all assays above

— ChEMBL document CHEMBL5543105, “Total synthesis and structural modification of the dibenzylbutane lignan LCA as a potent anti-inflammatory agent against LPS-induced acute lung injury” (Eur J Med Chem, 2024)
